Source: ChEMBL document CHEMBL1136607, “Novel thrombin inhibitors incorporating non-basic partially saturated heterobicyclic P1-arginine mimetics” (Bioorg Med Chem Lett, 2003)

Columns and labels:
[1] = biological target: Thrombin & trypsin (Homo sapiens) (UniProt P00734+P07477+P07478+P35030); assay: Selectivity ratio of thrombin to trypsin; format: protein assay
[2] = biological target: Serine protease 1 (Homo sapiens, UniProt P07477); assay: In vitro inhibitory activity against Trypsin
[3] = biological target: Prothrombin (Homo sapiens, UniProt P00734); assay: In vitro inhibitory activity against Thrombin
[4] = biological target: Coagulation factor X (Homo sapiens, UniProt P00742); assay: In vitro inhibitory activity against Factor Xa
[5] = organism: Homo sapiens; assay: Concentration required to double the thrombin time in human plasma (TT); format: functional, cell-free
[6] = organism: Homo sapiens; assay: Concentration required to double the […] prothrombin time in human plasma (PT); format: functional, cell-free
[7] = organism: Homo sapiens; assay: Concentration required to double the activated partial thromboplastin time in human plasma (APTT); format: functional, cell-free

Sequence of Serine protease 1 (P07477 whole entry): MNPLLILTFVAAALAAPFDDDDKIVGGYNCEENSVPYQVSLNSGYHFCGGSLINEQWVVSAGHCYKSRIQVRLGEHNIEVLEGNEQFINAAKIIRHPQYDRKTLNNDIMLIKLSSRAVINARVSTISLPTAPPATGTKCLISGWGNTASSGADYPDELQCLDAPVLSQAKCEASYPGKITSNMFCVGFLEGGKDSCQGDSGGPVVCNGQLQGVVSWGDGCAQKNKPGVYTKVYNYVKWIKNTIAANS
Sequence of Coagulation factor X (P00742 41-179 limits assumed): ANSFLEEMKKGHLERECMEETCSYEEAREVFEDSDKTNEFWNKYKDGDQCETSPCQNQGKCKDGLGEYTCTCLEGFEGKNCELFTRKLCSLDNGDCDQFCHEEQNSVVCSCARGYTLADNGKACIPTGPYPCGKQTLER
Sequence of Coagulation factor X (P00742 235-488 limits assumed): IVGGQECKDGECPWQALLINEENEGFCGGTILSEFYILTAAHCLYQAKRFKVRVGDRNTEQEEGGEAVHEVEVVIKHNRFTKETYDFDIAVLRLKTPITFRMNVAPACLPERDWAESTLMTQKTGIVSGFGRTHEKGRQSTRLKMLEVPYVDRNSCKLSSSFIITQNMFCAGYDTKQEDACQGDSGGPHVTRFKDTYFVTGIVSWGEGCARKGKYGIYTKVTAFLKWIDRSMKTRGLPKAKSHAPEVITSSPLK

| SMILES | Ratio [1] | Ki [2] [µM] | Ki [3] [µM] | Ki [4] [µM] | Concentration [5] [µM] | Concentration [6] [µM] | Concentration [7] [µM] |
| --- | --- | --- | --- | --- | --- | --- | --- |
| N[C@H](Cc1ccc(Cl)c(Cl)c1)C(=O)N1CCC[C@H]1C(=O)NCC1CCc2n[nH]cc2C1 (stereo partly drawn) | > 99 | > 68.3 | 0.69 | > 75.4 |  |  |  |
| O=C(NC1CCc2n[nH]cc2C1)[C@@H]1CCCN1C(=O)[C@@H](CC1CCCCC1)NS(=O)(=O)Cc1ccccc1 (stereo partly drawn) | > 13 | > 68.3 | 5.38 | > 75.4 |  |  |  |
| Nc1ncc2c(n1)CCC(CNC(=O)[C@@H]1CCCN1C(=O)[C@@H](CC1CCCCC1)NS(=O)(=O)Cc1ccccc1)C2 (stereo partly drawn) |  | > 68.3 | > 35.1 | > 75.4 |  |  |  |
| CC(C)(C)OC(=O)N[C@@H](C(=O)N1CCC[C@H]1C(=O)NCC1CCc2n[nH]cc2C1)C(c1ccccc1)c1ccccc1 (stereo partly drawn) |  |  | 0.53 | 85.2 | 29.2 | 105 | 81 |
| Nc1ncc2c(n1)CCC(NC(=O)[C@@H]1CCCN1C(=O)[C@@H](CC1CCCCC1)NS(=O)(=O)Cc1ccccc1)C2 (stereo partly drawn) |  | > 68.3 | > 35.1 | > 75.4 |  |  |  |
| N[C@@H](C(=O)N1CCC[C@H]1C(=O)NCC1CCc2n[nH]cc2C1)C(c1ccccc1)c1ccccc1 (stereo partly drawn) |  | 217 |  | 82.1 |  |  |  |
| Nc1ncc2c(n1)CCC(CNC(=O)[C@@H]1CCCN1C(=O)[C@H](N)C(c1ccccc1)c1ccccc1)C2 (stereo partly drawn) | 32 | 409 | 12.9 | 57.6 |  |  |  |
| Nc1ncc2c(n1)CCC(CNC(=O)[C@@H]1CCCN1C(=O)[C@H](N)Cc1ccc(Cl)c(Cl)c1)C2 (stereo partly drawn) |  | > 68.3 | > 35.1 | > 75.4 |  |  |  |
| Cn1cc2c(n1)CCC(NC(=O)[C@@H]1CCCN1C(=O)[C@@H](CC1CCCCC1)NS(=O)(=O)Cc1ccccc1)C2 (stereo partly drawn) |  | 730 |  |  |  |  |  |
| CC(C)(C)OC(=O)N[C@H](Cc1ccc(Cl)c(Cl)c1)C(=O)N1CCC[C@H]1C(=O)NCC1CCc2nc(N)ncc2C1 (stereo partly drawn) |  | > 68.3 | > 35.1 | > 75.4 |  |  |  |
| O=C(NC1CCc2c[nH]cc2C1)[C@@H]1CCCN1C(=O)[C@@H](CC1CCCCC1)NS(=O)(=O)Cc1ccccc1 (stereo partly drawn) | 15 | 416 | 27.3 |  |  |  |  |
| O=C(NCC1CCc2ncncc2C1)[C@@H]1CCCN1C(=O)[C@@H](CC1CCCCC1)NS(=O)(=O)Cc1ccccc1 (stereo partly drawn) |  | 342 |  | 111 |  |  |  |
| O=C(NCC1CCc2n[nH]cc2C1)[C@@H]1CCCN1C(=O)[C@@H](CC1CCCCC1)NS(=O)(=O)Cc1ccccc1 (stereo partly drawn) | > 478 | > 68.3 |  | > 75.4 | 11 | 78.3 | 42.3 |
| O=C(O)CN[C@H](CC1CCCCC1)C(=O)N1CCC[C@H]1C(=O)NCC1CCc2n[nH]cc2C1 (stereo partly drawn) | 71 | 19.9 |  | 84.8 | 4.9 | 55.3 | 28 |
| CC(C)(C)OC(=O)N[C@H](Cc1ccc(Cl)c(Cl)c1)C(=O)N1CCC[C@H]1C(=O)NCC1CCc2n[nH]cc2C1 (stereo partly drawn) | > 21 | > 68.3 | 3.33 | > 75.4 |  |  |  |
